# Key:
# [1] = target: T1, F(36M)4-hIn-m3 fusion protein in implanted HT101-10p cells (Homo sapiens, UniProt P01308+P62942, F37M/H34D/K53R/L86R/R55K); experiment: Regulated insulin secretion in vivo: serum insulin and glucose in STZ-treated mice implanted with HT101-10p cells; set-up: species or system male nu/nu mice
# T1 construct: fusion of F(36M) domains to insulin results in a suppression of its secretion; expressed in transfected cells; host or cells: HT101-10p cells (HT1080 stably transfected), implanted intramuscularly into male nu/nu mice
# T1 sequence (P62942+P01308 fused P62942:F37M/P01308:H34D/P01308:K53R/P01308:R55K/P01308:L86R): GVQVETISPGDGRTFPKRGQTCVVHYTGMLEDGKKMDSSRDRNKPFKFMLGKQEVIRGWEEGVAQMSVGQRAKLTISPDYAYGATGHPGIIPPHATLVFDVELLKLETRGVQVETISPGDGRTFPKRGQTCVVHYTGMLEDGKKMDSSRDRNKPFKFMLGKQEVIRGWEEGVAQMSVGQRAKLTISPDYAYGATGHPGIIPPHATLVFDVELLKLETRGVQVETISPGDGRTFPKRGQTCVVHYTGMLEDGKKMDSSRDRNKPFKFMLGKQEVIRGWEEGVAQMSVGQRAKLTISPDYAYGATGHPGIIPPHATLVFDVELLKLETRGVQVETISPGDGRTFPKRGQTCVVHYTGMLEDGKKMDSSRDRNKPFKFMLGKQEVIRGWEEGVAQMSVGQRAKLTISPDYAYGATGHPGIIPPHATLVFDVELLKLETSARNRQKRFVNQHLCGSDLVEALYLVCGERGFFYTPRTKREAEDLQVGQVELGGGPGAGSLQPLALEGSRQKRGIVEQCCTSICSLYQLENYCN
# Procedure: To test whether this system could be used to regulate secretion of insulin in vivo and effect changes in serum glucose levels, 2×10e7 HT101-10p cells were implanted intramuscularly into male nu/nu mice. HT101-10p cells were generated by stably transfecting HT1080 cells with a vector that drives expression of the F(36M)4-hIn-m3 fusion protein. Mice were made hyperglycemic by treatment 2 days earlier with 300 mg/kg streptozotocin (STZ). […] Approximately 1 hr after cells are implanted, animal received vehicle or the indicated dose of intravenous AP22542 (an analog of AP21998). Two hours later, serum samples were collected and assayed for insulin (Ultrasensitive human insulin-specific RIA, Linco) and glucose (Sigma) concentrations. […] In contrast, in animals treated with 10 mg/kg AP22542, serum insulin levels increase to ˜200 pM and serum glucose levels decline to ˜75 mg/dl.
# To examine the kinetics of this ligand-induced reduction in serum glucose, STZ-treated mice implanted with 2×10e7 HT101-10p cells were administered a single dose of 30 mg/kg AP22542 intravenously. Serum glucose levels were measured at various times between 5 minutes and 10 hours later. […] This effect is transient as serum glucose levels rise to 350 mg/dl within 5 hours and return to baseline between 6 and 10 hours later. Since insulin secretion is dependent on the presence of the drug, administration of lower doses of AP22542 or of a ligand with a shorter half life should result in an even more transient production of secreted protein and resulting physiological effect. Conversely, administration of higher doses of AP22542 or of a ligand with a longer half life should result in a more prolonged production of secreted protein.
# [2] = target: F36M-FKBP (Homo sapiens, UniProt P62942, F37M); experiment: Binding of bumped FKBP ligands to F36M-FKBP
# F36M-FKBP, sequence (P62942 whole entry F37M, the tested form may be a part): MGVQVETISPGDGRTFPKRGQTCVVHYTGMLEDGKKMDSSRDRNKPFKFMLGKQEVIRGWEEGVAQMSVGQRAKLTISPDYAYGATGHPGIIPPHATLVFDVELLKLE
# Description: (§1) AP21998 and AP22542 are ligands of FKBP that have particular utility for CAD applications, because they bind with high affinity to F36M-FKBP but poorly to the wild-type protein, and are thus anticipated to lead to minimal interactions with the endogenous proteins during in vivo applications. The design and assay of such “bumped” ligands that target a hole created by truncating FKBP residue Phe36 have been described (Clackson et al., Proc. Natl. Acad. Sci. USA 95:10437-10442, 1998).
# [3] = target: wild-type FKBP (Homo sapiens, UniProt P62942); experiment: Binding of bumped FKBP ligands to wild-type FKBP
# wild-type FKBP, sequence (P62942 whole entry): as the sequence (P62942 whole entry F37M, the tested form may be a part) above, with M37F counted along it
# Description: as §1
# [4] = target: T2, F(36M)-hGH fusion protein in HT88 cells (stably transfected HT1080) (Homo sapiens, UniProt P01241+P62942, F37M); experiment: Ligand-dependent hGH secretion from HT88 cells (radioimmunoassay); format: cell-based; settings: FIG. 5A
# T2 construct: 4 copies of the F(36M) domain; expressed in transfected cells; host or cells: HT1080 human fibrosarcoma cells, stably transfected pool HT88
# T2 sequence (P62942+P01241 fused P62942:F37M): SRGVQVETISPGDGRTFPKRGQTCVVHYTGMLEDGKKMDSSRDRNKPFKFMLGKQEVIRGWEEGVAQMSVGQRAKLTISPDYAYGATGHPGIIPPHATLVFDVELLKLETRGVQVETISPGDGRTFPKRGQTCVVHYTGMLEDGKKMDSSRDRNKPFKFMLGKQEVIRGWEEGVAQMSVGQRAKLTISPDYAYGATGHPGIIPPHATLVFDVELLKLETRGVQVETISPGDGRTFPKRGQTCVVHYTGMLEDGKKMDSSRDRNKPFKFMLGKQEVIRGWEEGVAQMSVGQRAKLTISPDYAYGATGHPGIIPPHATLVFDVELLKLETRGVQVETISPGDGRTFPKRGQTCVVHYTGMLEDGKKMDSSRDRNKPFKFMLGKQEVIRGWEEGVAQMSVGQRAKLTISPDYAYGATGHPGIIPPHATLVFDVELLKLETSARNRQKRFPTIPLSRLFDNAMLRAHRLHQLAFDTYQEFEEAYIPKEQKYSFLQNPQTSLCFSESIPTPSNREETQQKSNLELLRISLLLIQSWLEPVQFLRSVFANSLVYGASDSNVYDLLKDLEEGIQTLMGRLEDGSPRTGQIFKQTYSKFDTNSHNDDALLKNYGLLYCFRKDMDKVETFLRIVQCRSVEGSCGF
# Procedure: A vector driving the expression of this fusion protein, under control of the strong constitutive enhancer from CMV, was transiently transfected into HT1080 cells, a human fibrosarcoma cell line. Following overnight incubation of cells in the absence of ligand, the medium was washed away and fresh medium added, with or without ligand. Two hours later, the amount of hGH secreted into the medium was determined by radioimmunoassay. […] In contrast, in the presence of ligand, the amount of hGH secreted was several hundred-fold greater.
# Pools of clones stably transfected with the F(36M)-hGH fusion protein (HT88 pool) were analyzed as described for the transiently transfected cells. […] To determine the constitutive rate of hGH secretion, the amount of hGH secreted in the presence of ligand was measured from cells that had already been exposed to ligand for 15 hours. As shown in lane 3, the constitutive rate of secretion from the HT88 cell line was very similar to the rate of secretion from the HT89 cell line which had been stably transfected with the wild type hGH protein (lane 4). Thus, in the presence of ligand the F(36M) domains have no detectable “retention” activity. […] This steady state level of stored F(36M)-hGH fusion protein can persist for months in the cell line with no apparent toxic effect. […]
# [5] = target: T3, F(36M)4-hIn-m3 fusion protein in HT1080 cells (Homo sapiens, UniProt P01308+P62942, F37M/H34D/K53R/L86R/R55K); experiment: Regulated insulin secretion from transiently transfected HT1080 cells (C-peptide ELISA); format: cell-based; settings: increasing concentrations of ligand, 3 hours, FIG. 8
# T3 construct: fusion of F(36M) domains to insulin results in a suppression of its secretion; expressed in transfected cells; host or cells: HT1080 cells, transient transfection
# T3 sequence (P62942+P01308 fused P62942:F37M/P01308:H34D/P01308:K53R/P01308:R55K/P01308:L86R): as the sequence (P62942+P01308 fused P62942:F37M/P01308:H34D/P01308:K53R/P01308:R55K/P01308:L86R) above
# Procedure: A vector driving expression of this F(36M)-insulin fusion protein (F(36M)4-hIn-m3) was transiently transfected into HT1080 cells. For comparison, vectors driving the expression of insulin protein alone, with (hIn-m3) or without (hIn-wt) the three mutations were also transfected. Following overnight incubation of cells in the absence of ligand, the medium was washed away and fresh medium added, without or with increasing concentrations of the monomeric ligand, AP21998. Three hours later, the amount of insulin secreted into the medium was determined by ELISA using an assay that recognizes an epitope within the C-peptide (ALPCO).
# [6] = 1 mg/kg intravenous, 2 hours after dose, hyperglycemic mice
"serum glucose [1, 6]","serum insulin levels ([1]; 10 mg/kg intravenous, 2 hours after dose)","serum glucose levels ([1]; 10 mg/kg intravenous, 2 hours after dose, STZ baseline ~350 mg/dl)","serum glucose levels ([1]; 30 mg/kg intravenous single dose, by two hours, initial levels nearly 500 mg/dl)","serum glucose ([1]; 30 mg/kg intravenous single dose, within 30 minutes)","serum glucose levels ([1]; 30 mg/kg intravenous single dose, within 5 hours)",binding to F36M-FKBP [2],binding to the wild-type protein [3],concentration giving peak level of hGH secretion [4],EC50 ([4]; read-out: half-maximal secretion of hGH),SMILES,"serum insulin levels [1, 6]","serum glucose levels ([1]; 30 mg/kg intravenous single dose, 5 and 15 minutes after administration)",insulin secretion into medium [5]
no change in serum glucose,~200 pM,~75 mg/dL,50 mg/dL,significant reduction in serum glucose,350 mg/dL,high affinity,poorly,,,"CC[C@H](C(=O)N1CCCC[C@H]1C(=O)O[C@H](CCc1ccc(OC)c(OC)c1)c1cccnc1)c1cc(OC)c(OC)c(OC)c1 [AP22542, 1-[2(S)-(3,4,5-trimethoxyphenyl)-butyryl]-piperdine-2(S)-carboxylic acid, 3-(3,4-Dimethoxyphenyl)-1-pyridin-3-yl-propan-1(R)-ol ester]",fails to increase serum insulin levels above the lower limit of detection,indistinguishable from animals treated with vehicle,
,,,,,,high affinity,poorly,2 to 3 µM,0.6 µM,CC[C@H](C(=O)N1CCCCC1C(=O)O[C@H](CCc1ccc(OC)c(OC)c1)c1cccc(OCC(=O)NCCCN(C)C)c1)c1cc(OC)c(OC)c(OC)c1 (stereo partly drawn) [AP21998],,,secretion is induced in the presence of monomer in a dose-dependent manner

# Source: patent publication US6566073B1, “Materials and methods involving conditional retention domains” (Ariad Gene Therapeutics, Inc., priority 1998, dated 2003)
